Active and inactive are the calls of the source. No cut-off for these calls is given here.
Legend:
HUVEC [1] = assay: Cytotoxicity against HUVEC cell line; format: functional; conditions: Homo sapiens, read-out: LD50 (the source's name)
HUVEC [2] = assay: Antiangiogenic activity against HUVEC cells by tube formation assay at 100 uM; format: functional, Homo sapiens; conditions: for inhibition at 100 µM: Homo sapiens, HUVEC
[3] = target: Prostaglandin G/H synthase 1 (Homo sapiens) (UniProt P23219); conditions: at 30 µM
Description: Inhibition of COX1 at 30 uM

[4] = target: T1, Prostaglandin G/H synthase 2 (Homo sapiens) (UniProt P35354); conditions: at 30 µM
T1 sequence (whole entry): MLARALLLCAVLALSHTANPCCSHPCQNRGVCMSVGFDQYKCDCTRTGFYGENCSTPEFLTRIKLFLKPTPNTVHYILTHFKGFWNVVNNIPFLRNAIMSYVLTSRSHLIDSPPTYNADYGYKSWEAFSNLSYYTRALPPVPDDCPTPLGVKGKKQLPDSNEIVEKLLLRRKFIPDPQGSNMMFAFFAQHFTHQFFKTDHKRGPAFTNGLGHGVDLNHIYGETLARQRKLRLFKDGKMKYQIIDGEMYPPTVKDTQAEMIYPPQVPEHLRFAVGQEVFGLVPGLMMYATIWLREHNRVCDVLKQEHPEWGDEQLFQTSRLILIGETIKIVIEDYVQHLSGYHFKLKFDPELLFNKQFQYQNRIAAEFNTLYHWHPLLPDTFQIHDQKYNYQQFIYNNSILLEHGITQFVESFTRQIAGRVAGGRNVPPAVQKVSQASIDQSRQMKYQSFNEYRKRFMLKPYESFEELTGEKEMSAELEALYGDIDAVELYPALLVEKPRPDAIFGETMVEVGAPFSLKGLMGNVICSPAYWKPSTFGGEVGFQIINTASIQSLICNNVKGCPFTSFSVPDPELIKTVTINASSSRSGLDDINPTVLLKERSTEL
Description: Inhibition of COX2 at 30 uM

Sequence of Prostaglandin G/H synthase 1 (Homo sapiens) (P23219 whole entry): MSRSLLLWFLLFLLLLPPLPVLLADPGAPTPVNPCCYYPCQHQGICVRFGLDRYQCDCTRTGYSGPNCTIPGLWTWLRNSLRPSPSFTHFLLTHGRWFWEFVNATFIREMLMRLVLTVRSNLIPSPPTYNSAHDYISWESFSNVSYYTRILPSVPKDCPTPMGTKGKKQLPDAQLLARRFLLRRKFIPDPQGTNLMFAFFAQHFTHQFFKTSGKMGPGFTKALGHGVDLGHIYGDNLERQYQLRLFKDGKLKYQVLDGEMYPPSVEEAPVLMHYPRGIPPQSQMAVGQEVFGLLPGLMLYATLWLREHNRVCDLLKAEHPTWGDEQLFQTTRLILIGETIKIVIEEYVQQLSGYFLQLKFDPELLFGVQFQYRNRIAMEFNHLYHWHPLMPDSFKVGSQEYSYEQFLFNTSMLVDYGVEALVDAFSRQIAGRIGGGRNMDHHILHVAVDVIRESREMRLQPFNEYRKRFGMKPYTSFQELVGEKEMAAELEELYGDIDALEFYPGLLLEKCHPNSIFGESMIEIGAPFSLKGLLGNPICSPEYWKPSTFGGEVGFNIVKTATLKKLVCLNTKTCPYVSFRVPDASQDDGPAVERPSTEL

| Structure (SMILES) | CC50 (HUVEC [1]) | also measured |
| --- | --- | --- |
| CC(C)(C)c1cc(C(=O)n2ccc3cc(N)ccc32)cc(C(C)(C)C)c1 | > 100 µM |  |
| Cc1cc(C)cc(C(=O)n2ccc3cc([N+](=O)[O-])ccc32)c1 | > 100 µM |  |
| O=C(c1cc(C(F)(F)F)cc(C(F)(F)F)c1)n1ccc2cc([N+](=O)[O-])ccc21 | > 100 µM |  |
| CC(C)(C)c1cc(C(=O)n2ccc3cc([N+](=O)[O-])ccc32)cc(C(C)(C)C)c1 | > 100 µM |  |
| CC(C)Cc1ccc(C(C)C(=O)O)cc1 (stereo not drawn) [IBUPROFEN] |  | inhibition at 100 µM (HUVEC [2]): 35% |
| O=C(c1cc(Cl)cc(Cl)c1)n1ccc2cc([N+](=O)[O-])ccc21 | > 100 µM |  |
| O=C(c1cc(Cl)cc(Cl)c1)N1CCc2cc([N+](=O)[O-])ccc21 | > 100 µM |  |
| Cc1cc(C)cc(N2CCc3cc(N)ccc32)c1 |  | Activity (HUVEC [2]): 75% |
| CS(=O)(=O)c1ccc(-c2cc(Br)sc2-c2ccc(F)cc2)cc1 [DUP-697] |  | inhibition at 100 µM (HUVEC [2]): 25%; inhibition [3]: inactive |
| O=C(c1cc(C(F)(F)F)cc(C(F)(F)F)c1)N1CCc2cc([N+](=O)[O-])ccc21 | > 100 µM |  |
| Cc1cc(C)cc(C(=O)n2ccc3cc(N)ccc32)c1 | > 100 µM | inhibition at 100 µM (HUVEC [2]): 50% |
| CC(C)(C)c1cc(C(=O)N2CCc3cc(N)ccc32)cc(C(C)(C)C)c1 | > 100 µM |  |
| Cc1cc(C)cc(C(=O)N2CCc3cc(N)ccc32)c1 | > 100 µM |  |
| Nc1ccc2c(ccn2C(=O)c2cc(C(F)(F)F)cc(C(F)(F)F)c2)c1 | > 100 µM |  |
| Nc1ccc2c(c1)CCN2C(=O)c1cc(Cl)cc(Cl)c1 | > 100 µM |  |
| CC(C)(C)c1cc(C(=O)N2CCc3cc([N+](=O)[O-])ccc32)cc(C(C)(C)C)c1 | > 100 µM |  |
| Nc1ccc2c(c1)CCN2C(=O)c1cc(C(F)(F)F)cc(C(F)(F)F)c1 | > 100 µM |  |
| Cc1cc(C)cc(C(=O)N2CCc3cc([N+](=O)[O-])ccc32)c1 | > 100 µM |  |
| CC(=O)Oc1ccccc1C(=O)O |  | inhibition [3]: 21.9%; inhibition [4]: 15.7% |
| Nc1ccc2c(ccn2C(=O)c2cc(Cl)cc(Cl)c2)c1 | > 100 µM |  |
